Experiments:
Format in all cases: binding
[1] = target: T1, N-terminal CRD of hGalectin-4 (Gal-4N) (Homo sapiens, UniProt P56470); assay: 1H Saturation Transfer Difference (STD) NMR epitope mapping
T1 construct: N-terminal CRD of hGalectin-4 (amino acids 1–150, including an additional C-terminus His-Tag); His-Tag (C, cleaved yes); made in house; host or cells: E. coli BL21 (pET29b)
T1 sequence (P56470 1-150): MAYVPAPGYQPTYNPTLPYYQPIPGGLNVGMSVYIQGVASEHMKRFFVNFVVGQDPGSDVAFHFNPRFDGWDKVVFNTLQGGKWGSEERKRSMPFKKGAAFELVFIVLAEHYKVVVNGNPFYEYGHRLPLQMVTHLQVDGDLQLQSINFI
Description: ^1H-saturation transfer difference NMR spectra were acquired for mixtures of Gal-4N (50 μM) with a 50-fold excess of ligand. Protein aromatic irradiation afforded the best STD intensities and thus these are discussed henceforth. The STD NMR spectra were very similar among the different ligands with respect to both the observed glycan protons and their intensities. […] Severe proton overlapping precluded a full comparison among ligands, but key isolated ^1H NMR resonance signals permitted to highlight evident differences.
All the STD NMR experiments were performed using an 800 MHz Bruker spectrometer with a cryoprobe (Bruker, Billerica, MA, United States). The samples were prepared in the corresponding deuterated buffer. The temperature was 288 K for every experiment. An amount of 50 μM of the lectin with 50 equivalents of the ligand was employed for every experiment except for lactose, for which a 1:70 ratio was used. The STD spectra were acquired with 1,024 scans, 2 s of saturation time using a train of 50 ms Gaussian-shaped pulses, and 3 s of relaxation delay. The spin-lock filter applied to remove the signals of the lectin was set at 40 ms. The on-resonance frequency was set for the aromatic region at 6.58 ppm, while the off-resonance frequency was set at 100 ppm.
Supplementary Table S1. Relative STD-AF (Amplification factor) and STD percentage of each non overlapping proton of each ligand.

[2] = target: T1, N-terminal CRD of hGalectin-4 (Gal-4N); assay: 1H-15N HSQC NMR-based titrations (chemical shift perturbation) of 15N-labeled Gal-4N; conditions: HSQC NMR-based titration, 50 μM 15N-labeled lectin, 298 K; read-out: KD (μM) (NMR)
Description: The molecular recognition event was also analyzed from the perspective of the lectin. Thus, a chemical shift perturbation (CSP) analysis of the changes produced in the ^1H-^15N HSQC spectra recorded for ^15N-labeled Gal-4N upon addition of the different ligands was carried out. This analysis required the NH backbone NMR assignment of the lectin signals, following well-established triple resonance 3D NMR methods (see Materials and methods and Supplementary Information). The assignment protocol allowed assigning 80% of the NH backbone resonances. In addition to the ligands shown in Scheme 1, the corresponding non-fucosylated analogs and the H antigens (devoid of the terminal Gal/GalNAc moieties, see Supplementary Information), as well as lactose, were also employed. Thus, a full comparative analysis on the monosaccharide-specific effects on the lectin CSP was achieved.
The total volume for the NMR samples was 500/μl. The lectin was in phosphate-buffered saline (50 mM sodium phosphate, 150 mM NaCl, pH 7.4), either in D2O or 90:10 H2O:D2O depending on the NMR experiment. The pH was adjusted with the required amount of NaOH and HCl or NaOD and DCl.
experiments were acquired using an 800 MHz Bruker spectrometer with a cryoprobe (Bruker, Billerica, MA, United States). The samples were prepared using 50 μM of the ^15N-labeled lectin in the corresponding buffer in a 90:10 H2O:D2O ratio. The experiments were performed at 298 K. Six to nine points were recorded for each ligand and CSP and KD were calculated using CcpNmr Analysis 2.4.2.

[3] = target: T1, N-terminal CRD of hGalectin-4 (Gal-4N); assay: Isothermal titration calorimetry (ITC); conditions: for Kd: PBS pH 7.4, single binding site model
Description: Isothermal titration calorimetry experiments were performed using the MicroCal PEAQ-ITC calorimeter (Malvern Panalytical, Malvern, United Kingdom). Samples containing 100–200 μM of Gal-4N in PBS (50 mM sodium phosphate, pH 7.4, 300 mM NaCl) were titrated with stocks of 3–10 mM in PBS of glycans 4, 5, 7, 8, 9, and 11. During the automated experiment, small aliquots (2–3 μL) of the sugar stocks were added to the cell containing the lectin. Curve fitting to a single binding site model was performed with the MicroCal Origin 7 software.
Isothermal titratrion calorimetry (ITC). Isothermal Titration Calorimetry experiments were performed using MicroCal PEAQ-ITC calorimeter. Samples containing 100-200 µM of Gal-4N in PBS (50 mM sodium phosphate pH 7.4, 300 mM NaCl) were titrated with stocks of 3-10 mM in PBS of glycans A type 1, A type 2, A type 6, B type 1, B type 2 and B type 6. During the automated experiment, small aliquots (2-3 µL) of the sugar stocks were added to the cell containing the lectin. The association constants and the thermodynamic profile of the binding was calculated from the fitting of the titration data to a single binding site model.

[4] = 1H-residue NHAcGlcNAc (B type 1: first of two lines)
[5] = 1H-residue NHAcGlcNAc (B type 1: second of two lines)

Structure (SMILES)	STD% ([1]; 1H-residue H1 Fuc) [%]	STD-AF ([1]; 1H-residue H1 Fuc)	STD% ([1]; 1H-residue H1Galα) [%]	STD-AF ([1]; 1H-residue H1Galα)	STD% ([1]; 1H-residue H1Galβ) [%]	STD-AF ([1]; 1H-residue H1Galβ)	STD% ([1]; 1H-residue H1GlcNAc) [%]	STD-AF ([1]; 1H-residue H1GlcNAc)	STD% ([1]; 1H-residue H3GlcNAc) [%]	STD-AF ([1]; 1H-residue H3GlcNAc)	STD% ([1]; 1H-residue H4Galβ) [%]	STD-AF ([1]; 1H-residue H4Galβ)	STD% ([1]; 1H-residue H5Galβ) [%]	STD-AF ([1]; 1H-residue H5Galβ)	STD% ([1]; 1H-residue MetFuc) [%]	STD-AF ([1]; 1H-residue MetFuc)	STD-AF [1, 4]	Kd [2] [µM]	-TΔS (kcal mol^–1) (ITC) [3]	ΔG (kcal mol^–1) (ITC) [3]	other results
CC(=O)N[C@@H]1[C@@H](O[C@@H]2O[C@H](CO)[C@H](O)[C@H](O[C@H]3O[C@H](CO)[C@H](O)[C@H](O)[C@H]3O)[C@H]2O[C@@H]2O[C@@H](C)[C@@H](O)[C@@H](O)[C@@H]2O)[C@H](O)[C@@H](CO)O[C@H]1O [B type-1 (tetra)]	0	0.0000	56	0.0053	70	0.0066	16	0.0015	38	0.0036	74	0.0070	100	0.0094	14	0.0013	0.0133	200	2.3	−5.4	STD% ([1]; 1H-residue H2Galα): 35%; STD-AF ([1]; 1H-residue H2Galα): 0.0033; STD% ([1]; 1H-residue H2GlcNAc): 29%; STD-AF ([1]; 1H-residue H2GlcNAc): 0.0027; STD% ([1]; 1H-residue H4GlcNAc): 53%; STD-AF ([1]; 1H-residue H4GlcNAc): 0.0050; STD% ([1]; 1H-residue H5Galα): 23%; STD-AF ([1]; 1H-residue H5Galα): 0.0022; STD% [1, 4]: 141%; STD% [1, 5]: 59%; STD-AF [1, 5]: 0.0055; STD% ([1]; Average NHAc): 100%; STD-AF ([1]; Average NHAc): 0.0094; ΔH (kcal mol^–1) (ITC) [3]: −7.7 kcal mol^–1; Kd [3]: 109 µM
CC(=O)NC1C(O)OC(CO)C(OC2OC(CO)C(O)C(OC3OC(CO)C(O)C(O)C3O)C2OC2OC(C)C(O)C(O)C2O)C1O (stereo not shown) [B type-2 (tetra)]	16	0.0024	73	0.0108	59	0.0088	24	0.0035	36	0.0054	55	0.0081	100	0.0148	16	0.0023	0.0035	190	3.8	−5.5	STD% ([1]; 1H-residue H3Galβ): 36%; STD-AF ([1]; 1H-residue H3Galβ): 0.0054; STD% ([1]; 1H-residue H4Galα): 18%; STD-AF ([1]; 1H-residue H4Galα): 0.0027; ΔH (kcal mol^–1) (ITC) [3]: −9.3 kcal mol^–1; Kd [3]: 88 µM

Source: paper PMC8097242, “Galectin-4 N-Terminal Domain: Binding Preferences Toward A and B Antigens With Different Peripheral Core Presentations” (Frontiers in Chemistry, 2021)
